Source: publication PMC4434909, “In vitro properties of designed antimicrobial peptides that exhibit potent antipneumococcal activity and produces synergism in combination with penicillin” (Scientific Reports, 2015)
Where “and” joins values, the source holds several entries; their conditions need not be identical. Equal entries are not always repeated. Entries after “also recorded” stand apart in the source; their conditions may differ. Where two headings read alike, the source gives them in different places. Where no end group is shown, it is not given here.

Experiments:
PRSP = assay: Transmission electron microscopy of treated pneumococci; format: cell-based, Streptococcus pneumoniae; settings: PRSP 5 × 10^10 CFU/ml, peptides 8 mg/ml, four hours 37°C 5% CO2
Protocol: An overnight culture of PRSP on sheep blood agar was passaged twice and directly suspended in CAMHB. As sample for TEM required high cell density of about 10^8 to 10^10 to be viewable, the bacteria was prepared to 5 × 10^10 CFU/ml and treated with supra-concentration of peptides at 8 mg/ml for four hours at 37°C under 5% CO2. Cells treated with only water was served as the untreated control. For TEM sample preparation, standard protocol provided by the Electron Microscopic Unit, Faculty of Medicine, University of Malaya was followed. The cells were washed twice with CAMHB before overnight fixation in 4% (v/v) glutaraldehyde, two times postfix washes with cacodylate buffer, incubate, two hours incubation with osmium tetroxide buffer (OsO4 1: 1 cacodylate), and washed twice with cacodylate buffer before overnight incubation in the same buffer. Next, the samples were washed twice with double distilled water, 10 min of uranyl acetate incubation, and washed twice with double distilled water before subjected to dehydration by gradual ethanol series: 35% for 10 min, 50% for 10 min, 70% for 10 min, 95% for 15 min, and three rounds of absolute (100%) ethanol for 15 min. Following this, samples were incubated with two rounds of propylene oxide for 15 min, propylene oxide 1:1 Epon for 1 hr, propylene oxide 1:3 Epon for 2 hrs, overnight incubation with Epon, embedded in Agar 100 resin at 37°C for five hours, and maintained in 60°C until viewing. Ultrathin sectioning were prepared on Reichert Ultramicrotome, copper grids 3.05 mm (300 square mesh) (Agar Scientific), and stained with ethanol-based uranyl acetate and lead citrate for 5 min. The prepared samples were viewed with Leo Libra 120 under standard operating conditions.

E. cloaceae = format: cell-based, E. cloacae; settings: Gram-negative, clinical isolate; broth microdilution, CAMHB, peptides 1.96–250 μg/ml
Source text: (§1) All bacterial strains were obtained from Department of Medical Microbiology, University of Malaya. Clinical isolates were previously obtained from University of Malaya Medical Centre and maintained in the laboratory. Sheep blood agar was used for pneumococcal cultivation purpose. Nutrient agar was used for cultivating E. coli ATCC 25922, S. aureus ATCC 25923, and P. aeruginosa ATCC 15442, Acinetobacter baumanii ATCC 15308, and one clinical isolate for each MRSA, E. cloacae, Citrobacter spp., and K. pneumoniae. For antimicrobial testing, Mueller-Hinton agar (MHA) and cationically-adjusted MHB (CAMHB) were prepared according to the Clinical and Laboratory Standard Institute guidelines. MHA for S. pneumoniae was supplemented with 5% (v/v) defibrinated sheep blood and 5% laked horse blood for CAMHB. All bacterial cultures were stored in multiple vials in brain heart infusion broth supplemented with 10% (v/v) glycerol at −80°C to avoid repeated freeze-thawed cycles on the cells. All freeze-stocked strains were passaged twice prior to experimentation.
(§2) Procedures were performed to determine the MIC of peptides according to the CLSI guidelines[21] against 60 pneumococcal isolates which consisted of 20 isolates each for PRSP, PISP, and PSSP. Strains were grown for 18–24 hrs at 37°C under 5% CO2. Direct suspension of the colonies were made in CAMHB and adjusted to OD625 0.08–0.1 which corresponds to 1 ~ 2 × 10^8 CFU/ml followed by serial ten-fold dilutions to give 1 × 10^6 CFU/ml. Fifty microliters of bacterial suspension was then aliquoted to 96-well round bottom microtiter plates containing equal volume of serially diluted peptides to give final concentrations of peptides encompassing the range of 1.96–250 μg/ml. […] The plates were incubated for 18–24 hrs at 37°C under 5% CO2. MIC was read as the concentration of peptide producing complete inhibition on the visible growth of the test organism. Results were pooled from three independent experiments. MIC range was defined as the range of concentrations where the peptides produce detectable antimicrobial activity. Effective percentage (EP) was the proportion of pneumococcal isolates inhibited within the MIC range. Since the isolates tested were obtained prior to 2008 where major revision in antibiotic susceptibility breakpoints were introduced, thus the pneumococci were defined according to the PEN susceptibility breakpoint (prior 2008) which corresponds to the PEN (oral penicillin V) breakpoint of the revised criteria.
(§3) The broad spectrum antibacterial activity of the peptides against a panel of eight clinically important bacteria was also determined, this includes S. aureus ATCC 25923, E. coli ATCC 25922, P. aeruginosa ATCC 15442, A. baumanii ATCC 15308, and one clinical isolate each for MRSA, E. cloacae, Citrobacter spp., and K. pneumoniae.

K. pneumoniae = format: cell-based, Klebsiella pneumoniae; settings: Gram-negative, clinical isolate; broth microdilution, CAMHB, peptides 1.96–250 μg/ml
Source text: as §1, §2, §3

human erythrocytes = assay: Hemolytic activity; format: cell-based; settings: for Hmax: percentage hemolysis at the highest concentration tested (all peptides 250 μg/ml; PEN 4 μg/ml)
Protocol: Hemolytic assay was performed as described. Freshly drawn human erythrocytes were rinsed three times with PBS and resuspended in PBS to 4% (v/v). One hundred microliters of the suspension was added to 96-well microtiter plate containing equal volume of peptides to give final concentrations of peptides encompassing the range of 1.96–250 μg/ml. PBS and 0.1% (v/v) Triton-X 100 were used as 0% and 100% hemolytic control respectively. Plates were incubated at 37°C for 1 hr. Subsequently, the plate was centrifuged and the supernatant was transferred to a new plate. The release of hemoglobin in the supernatant was monitored at absorbance of 450 nm using Glomax Multidetection system (Promega, USA). Results were pooled from three independent experiments and expressed as mean ± SD. HC10 and HC50 were defined as the peptide concentrations causing 10% and 50% hemolysis on human erythrocytes, respectively. Hmax was the percentage hemolysis observed at the maximum concentration as defined throughout this study (all peptides 250 μg/ml, PEN 4 μg/ml).

[1] = concentration causing 10% hemolysis, 4% (v/v) erythrocytes in PBS, 37°C 1 hr, absorbance 450 nm, mean ± SD of three independent experiments
[2] = concentration causing 50% hemolysis, 4% (v/v) erythrocytes in PBS, 37°C 1 hr, absorbance 450 nm, three independent experiments
[3] = mean ± SD of three independent experiments

Substance	changes in pneumococcal cell morphology (TEM) (PRSP)	MIC, E. cloaceae (E. cloaceae) [µg/mL]	MIC, K. pneumoniae (K. pneumoniae) [µg/mL]	HC10 (human erythrocytes; [1]) [µg/mL]	HC50 (human erythrocytes; [2]) [µg/mL]	Hmax (human erythrocytes; [3])	HC10 (human erythrocytes) [µg/mL]	HC50 (human erythrocytes; red cells of human, 1 h) [µg/mL]	hemolysis at the effective MIC level against S. pneumoniae (human erythrocytes; red cells of human, 1 h) [%]
GLFDIWKKWRWRR-NH2 [DM4]	Loss of cell wall fragments	250	>250	> 250	>250	< 1.0% and 0.6 ± 0.1%	–	–	–
GLFDIWAWWRWRR-NH2 [DM2]	filamentous and stacked at one pole of the cell	>250	>250	–	–	–	114.3	>250	–
GLFDIWKWWRWRR-NH2 [DM3]	formation of cytoplasmic-containing inclusion bodies	31.3	62.5	–	–	–	52.7	>250	≤ 15
GLFDKWAWWRWRR-NH2 [DM1]	formation of cytoplasmic-containing inclusion bodies	125	>250	> 250	>250	< 1.0% and 0.5 ± 0.1%	–	–	–
GLFDIWKKLRWRR-NH2 [DM5]	Loss of cell wall fragments; also recorded: formation of cytoplasmic-containing inclusion bodies	125	250	–	–	–	> 250	>250	–
